Measured values as given in the supplement of paper PMC10307832.

What was measured:
Experiment in all cases: relative viability (nuclei count vs DMSO), 5 days (fraction); higher = more cells survive
[1] = compound: C1/C(=C\C2=CC=CS2)/C(=O)/C(=C/C3=CC=CS3)/C1 + CC(=O)Nc1cccc(-n2c(=O)n(C3CC3)c(=O)c3c(Nc4ccc(I)cc4F)n(C)c(=O)c(C)c32)c1 [Trametinib] (partner 0.02 µM)
Method in brief: (§1)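 Relative viability is defined as nuclei in treated wells over nuclei in vehicle wells. Duplicate plates were run and medians reported. Lung cancer cell lines in 1536-well plates were dosed by pin tool one day after seeding, with one drug or with a fixed anchor-drug dose plus five library-drug doses (not always all listed) in √10 steps, and nuclei were counted after 5 days.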

[2] = compound: C1/C(=C\C2=CC=CS2)/C(=O)/C(=C/C3=CC=CS3)/C1 + COc1cc2c(Oc3ccc(NC(=O)C4(C(=O)Nc5ccc(F)cc5)CC4)cc3F)ccnc2cc1OCCCN1CCOCC1 [Foretinib] (partner 0.25 µM)
Method in brief: as §1

Lestaurtinib + Foretinib = compound: C[C@]12O[C@H](C[C@]1(O)CO)n1c3ccccc3c3c4c(c5c6ccccc6n2c5c31)CNC4=O [Lestaurtinib] + COc1cc2c(Oc3ccc(NC(=O)C4(C(=O)Nc5ccc(F)cc5)CC4)cc3F)ccnc2cc1OCCCN1CCOCC1 [Foretinib] (partner 0.25 µM)
Method in brief: as §1

[3] = compound: C1/C(=C\C2=CC=CS2)/C(=O)/C(=C/C3=CC=CS3)/C1 + Cc1cc(Nc2cc(N3CCN(C)CC3)nc(Sc3ccc(NC(=O)C4CC4)cc3)n2)n[nH]1 [Tozasertib] (partner 0.1 µM)
Method in brief: as §1

Row | Cell Line | relative viability ([1]; first compound 0.2 µM) | relative viability ([1]; first compound 0.6325 µM) | relative viability ([1]; first compound 2 µM) | relative viability ([1]; first compound 6.325 µM) | relative viability ([1]; first compound 20 µM) | relative viability ([2]; first compound 0.2 µM) | relative viability ([2]; first compound 0.6325 µM) | relative viability ([2]; first compound 2 µM) | relative viability ([2]; first compound 6.325 µM) | relative viability ([2]; first compound 20 µM) | relative viability (Lestaurtinib + Foretinib; first compound 0.005 µM) | relative viability (Lestaurtinib + Foretinib; first compound 0.01581 µM) | relative viability (Lestaurtinib + Foretinib; first compound 0.05 µM) | relative viability (Lestaurtinib + Foretinib; first compound 0.1581 µM) | relative viability (Lestaurtinib + Foretinib; first compound 0.5 µM) | relative viability ([3]; first compound 0.2 µM) | relative viability ([3]; first compound 0.6325 µM) | relative viability ([3]; first compound 2 µM) | relative viability ([3]; first compound 6.325 µM) | relative viability ([3]; first compound 20 µM)
1 | NCI-H2170 | 0.918 | 0.92 | 0.863 | 0.78 | 0.867 | 1.02 | 0.99 | 1.02 | 0.887 | 1.03 | 0.969 | 1.02 | 0.907 | 0.962 | 0.358 | 0.689 | 0.716 | 0.73 | 0.563 | 0.728
2 | HCC-366 | 0.386 | 0.371 | 0.316 | 0.314 | 0.329 | 0.919 | 0.915 | 0.99 | 0.849 | 0.904 | 0.939 | 0.924 | 0.994 | 1.03 | 0.536 | 0.105 | 0.0974 | 0.101 | 0.0969 | 0.0897
3 | NCI-H2347 | 0.273 | 0.271 | 0.27 | 0.26 | 0.28 | 0.703 | 1.1 | 1.08 | 0.729 | 1.03 | 1.18 | 1.38 | 0.865 | 0.98 | 0.598 | 0.666 | 0.574 | 0.596 |  | 0.738
4 | COR-L 105 | 0.421 | 0.463 | 0.447 | 0.402 | 0.451 | 1.49 | 1.02 | 1.31 |  | 1.03 | 1.29 | 1.19 | 1.27 | 1.18 | 0.669 | 0.337 | 0.33 | 0.316 |  | 0.407
5 | 201T | 0.708 | 0.704 | 0.736 | 0.708 | 0.706 | 1 | 1.09 | 1.25 | 0.752 | 1.02 | 1.13 | 1.21 | 1.17 | 1.14 | 0.356 | 0.959 | 0.968 | 1 | 0.897 | 0.911
6 | NCI-H2126 | 0.554 | 0.586 | 0.576 | 0.502 | 0.585 | 1.38 | 0.985 | 1.3 | 1.08 | 1.08 | 1.19 | 1.31 | 1.1 | 1.1 | 0.926 | 0.888 | 0.831 | 0.878 | 0.814 | 0.798
7 | LC-2-ad | 0.9 | 0.94 | 0.893 | 0.781 | 0.897 | 0.971 | 0.941 | 0.99 | 0.817 | 0.89 | 0.946 | 0.903 | 0.817 | 0.647 | 0.324 | 0.452 | 0.461 | 0.448 | 0.429 | 0.429
8 | NCI-H2085 | 0.516 | 0.513 | 0.545 | 0.635 | 0.538 | 1.09 | 1.05 | 0.984 | 0.927 | 0.883 | 1.01 | 0.885 | 0.801 | 1.05 | 0.826 | 0.867 | 0.898 | 0.792 | 0.799 | 0.718
9 | NCI-H358 | 0.124 | 0.134 | 0.148 | 0.133 | 0.132 | 0.668 | 0.742 | 0.761 |  | 0.631 | 0.621 | 0.436 | 0.358 | 0.201 | 0.108 | 0.101 | 0.096 | 0.112 |  | 0.11
10 | H3255 | 0.644 | 0.583 | 0.596 | 0.446 | 0.666 | 0.847 | 1.09 | 1.1 | 0.819 | 0.83 | 0.981 | 0.888 | 0.898 | 0.703 | 0.419 | 0.714 | 0.617 | 0.566 | 0.537 | 0.546
11 | NCI-H2228 | 0.559 | 0.517 | 0.414 | 0.43 | 0.424 | 0.816 | 0.992 | 0.869 | 0.913 | 0.715 | 0.885 | 0.896 | 0.523 | 0.379 | 0.254 | 0.239 | 0.235 | 0.246 | 0.145 | 0.261
12 | CAL-12T | 0.376 | 0.365 | 0.316 | 0.261 | 0.307 | 1.34 | 1.02 | 1.09 | 0.981 | 1.03 | 1.25 | 1.22 | 1.03 | 1.13 | 0.696 | 0.334 | 0.32 | 0.356 | 0.256 | 0.309
13 | A-427 | 0.838 | 0.738 | 0.887 | 0.739 | 0.815 | 1.04 | 1.01 | 1.06 | 0.992 | 1.16 | 1.03 | 1.04 | 0.668 | 0.4 | 0.154 | 0.185 | 0.22 | 0.248 | 0.176 | 0.216
14 | HARA | 0.622 | 0.78 | 0.663 | 0.937 | 0.829 | 0.875 | 0.992 | 0.973 | 0.832 | 0.842 | 0.958 | 0.856 | 0.838 | 0.827 | 0.126 | 0.121 | 0.123 | 0.116 | 0.101 | 0.0981
15 | NCI-H1793 | 0.429 | 0.452 | 0.49 | 0.403 | 0.463 | 0.754 | 0.629 | 0.783 | 0.579 | 0.625 | 0.684 | 0.702 | 0.436 | 0.574 | 0.39 | 0.394 | 0.297 | 0.347 | 0.338 | 0.258
16 | NCI-H1623 |  |  |  |  |  | 0.863 | 0.907 | 0.871 | 0.786 | 0.821 | 0.872 | 0.812 | 0.818 | 0.671 | 0.695 | 0.479 | 0.437 | 0.423 | 0.394 | 0.489
